Where a SMILES comes first, the peptide text is derived from it. [ ]: non-standard residue; d: D form. The star is where a group is joined. 5FAM = O=C1OC2(c3ccc(O)cc3Oc3cc(O)ccc32)c2ccc(C(=O)*)cc21; Pro(cis-4-guanidino) = NC(N)=N[C@@H]1CN[C@H](C(=O)O)C1; Cha = N[C@@H](CC1CCCCC1)C(=O)O; Ahx = NCCCCCC(=O)O
What was measured:
[1] = RP-HPLC retention time as estimate of hydrophobicity (C4 column, 30 to 55% B); assay type: physicochemical; conditions: RP-HPLC used as estimate of hydrophobicity, A H2O/MeCN/TFA (1000/10/1), gradient 30 to 55% B, 20 min, CF-Ahx-labelled peptides
Description: 2 (A) General structure of amphipathic peptides, CF-Ahx-[XZZ]3-NH2; CF = 5(6)-Carboxyfluorescein, Ahx = aminohexanoic acid. (B) CD spectra of the peptides, recorded at 50 μM in H2O, pH 5.7. For a comparison with a spectrum of a Gup oligomer, see Figure S2. (C) Retention time of the peptides measured by RP-HPLC on a C4 column with a mobile phase from 30 to 55% of MeCN in H2O/MeCN/TFA (1000/10/1). (D) Representative confocal microscopic images of live MCF-7 cells, incubated for 1 h at 37 °C with peptide solutions at a concentration of 10 μM in DMEM + 1% FBS (left, in green). Mitochondria were stained with Deep Red MitoTracker (middle, in red) and merged images (right, orange/yellow indicating colocalization) with Hoechst33342 stain (blue) for the nucleus. TEXT PRINTED IN THE PICTURE: (C) (ValZZ)3: tr(min): 1.8 | (C) (PheZZ)3: tr(min): 2.9 | (C) (TrpZZ)3: tr(min): 3.2 | (C) (ChaZZ)3: tr(min): 5.4 DOUBTS OF THE COPYIST ABOUT THIS PICTURE: Panel C, column head: the small lowered letter after t is read as r (tr), not certain
The Gup residues should preorganize the peptides into a PPII helix with one hydrophobic and two cationic edges along the PPII helical peptide. Indeed, circular dichroism (CD) spectra of the peptides display the characteristic minimum and maximum at ∼206 nm and ∼224 nm, respectively, of a PPII helix (Figure B). The spectra imply that the non-proline residues in every third position are tolerated within the helical structure. We used reverse phase high performance liquid chromatography (RP-HPLC) for an estimate of the hydrophobicity of the peptides. On a C4 column using two mobile phases A (H2O/MeCN/TFA (1000/10/1)) and B (MeCN) with a gradient of 30% to 55% B, all peptides eluted over 20 min but with different retention times (Figure C). The Cha-containing peptide had the longest retention time, indicating the highest hydrophobicity within the series, followed by the Trp-, Phe-, and Val-peptides.

[2] = tested on: MCF-7 cells; test: Flow cytometry at 4 °C versus 37 °C; assay type: cell-based; conditions: MCF-7, 20 µM, 1 h
Description: MCF-7 cells were seeded in a 24-well plate at 150′000 cells/well in DMEM (1 mL, 10% FCS), and allowed to adhere overnight. The medium was removed, the cells were washed with PBS (250 μL, 1x) and incubated with the peptide solution at 20 μM, 10 μM, 5 μM or 2.5 μM in medium (200 μL, 1% FCS) for 1 h at 37 °C. The medium was removed, and the cells were washed with PBS (250 μL, 2x). Trypsin (100 μL, 0.05%) was added, and the cells were incubated at 37 °C for 5 min. D-PBS with Mg^2+ and Ca^2+ (300 μL, 4 °C) was added, the cells were resuspended and centrifuged for 5 min at 0.4 rcf. The supernatant was carefully removed, and the cells were resuspended in a solution of PBS containing 1.5 μM PI and 2 mM EDTA (400 μL at 4 °C). […] Each sample contained 10′000 cells and was analyzed in triplicate. […]
Figure S9. […] After 1 h incubation at 4 °C, the fluorescence signal is in case of most of the peptides lower, indicating an endocytosis pathway. […]
of different entry mechanisms. The indicated P-values were determined using one-way ANOVA followed by Tukey’s […]
(also on this page, place not known: µM µM °C µM °C (ChaZZ) µM °C (ChaZZ) µM °C (ChaZZ) µM °C 20000Mean fluorescence intensity (ChaZZ)3 °CCells °C (ChaZZ) µM °C (ChaZZ) µM °C (ChaZZ) 3-Cha µM °C (ChaZZ) 3-Cha µM °C (ChaZZ) 3-Cha µM °C (ChaZZ) 3-Cha µM °C (ChaZZ) 3-Cha µM °C (ChaZZ) 3-Cha µM °C 30000Mean fluorescence intensity)

Row | Compound | Retention time tr [1] | Fluorescence signal after incubation at 4 °C compared with 37 °C (FACS) [2]
1 | N=C(N)N[C@H]1C[C@@H](C(=O)N2C[C@@H](NC(=N)N)C[C@H]2C(=O)N[C@@H](CC2CCCCC2)C(=O)N2C[C@@H](NC(=N)N)C[C@H]2C(=O)N2C[C@@H](NC(=N)N)C[C@H]2C(=O)N[C@@H](CC2CCCCC2)C(=O)N2C[C@@H](NC(=N)N)C[C@H]2C(=O)N2C[C@@H](NC(=N)N)C[C@H]2C(=O)N[C@@H](CC2CCCCC2)C(N)=O)N(C(=O)[C@H](CC2CCCCC2)NC(=O)CCCCCNC(=O)c2ccc3c(c2)C(=O)OC32c3ccc(O)cc3Oc3cc(O)ccc32)C1 [(ChaZZ)3-Cha, CF-Ahx-(ChaZZ)3-Cha-NH2] ({5FAM-Ahx}-[Cha][Pro(cis-4-guanidino)][Pro(cis-4-guanidino)][Cha][Pro(cis-4-guanidino)][Pro(cis-4-guanidino)][Cha][Pro(cis-4-guanidino)][Pro(cis-4-guanidino)][Cha]-NH2) | 8.5 min | –
2 | CF-Ahx-(ChaZZ)2-Cha-NH2 | 8.1 min | –
3 | CF-Ahx-(ChaZZ)3-NH2 | – | close-to-level signal

From publication PMC12455572, “Amphipathic Proline-Rich Cell Penetrating Peptides for Targeting Mitochondria” (ACS Chemical Biology, 2025)
